Experimental data published in US5962525A, “6,7-disubstituted-2-aminotetralines active as immunomodulators and pharmaceutical compositions containing same” (Sigma-Tau, priority 1990, dated 1999).
“And” between values parts separate entries of the source, which are not always exact repeats. Identical values can stand only once. Like-named read-outs stand apart in the source and are kept apart here.

How the values were obtained:
[1] = Tolerability after oral or intravenous administration; set-up: species or system mouse (Swiss albino); settings: mouse, in vivo, 7 days observation, read-out: Tolerability, dose
Procedure: The test was conducted in male Swiss albino mice weighing 22-24 g.
A group of animals (4 animals/dose) which had been kept fasting for 18 hours, were orally administered the compounds ST 557, ST 563, ST 564 and ST 570 dissolved in twice distilled water.
A further group of animals, which had free access to food and water, were administered intravenously the same compounds dissolved in saline it pH 7. All the animals were kept under observation for 7 days.

[2] = test system: murine peritoneal macrophages; tumor targets Daudi and CEM-CM3; assay: "In vitro-ex vivo" effect on the cytotoxic activity of peritoneal macrophages (lysis of 3H-TdR labelled tumor cells); set-up: species or system mouse (B6 D2 F1, C57B16); tumor targets human
Procedure: Assessment of the "in vitro-ex vivo" effect of ST 557, ST 563, ST 570 and ST 626 on the cytotoxic activity of peritoneal macrophages (M)
Male hybrid B6 D2 F1 aged 7-9 weeks and male inbred mice C57B16 aged 8 weeks were used (4 animals/group).
All the compounds were administered i.p. (25 mg/kg/day). ST 557 was also administered per os (100 mg/kg/day) from day -5 to day -1 (peritoneal exudate cell [PEC] harvesting at day 0).
PEC were obtained from sacrificed animals, 24 hours following the end of treatment, via repeated washings of the abdominal cavity. The peritoneal exudates obtained from each group of animals were pooled.
The macrophage percentage was assessed by counting in a Burker chamber; cell suspensions (concentration=2×10^6 M/ml) were prepared.
The macrophage cytotoxic activity was assessed using the following two tumor cell lines as targets: Daudi, derived from a human lymphoblastoma and CEM-CM3, derived from human lymphoblastic leukemia (both lines are disclosed in ATCC--American Type Culture Collection--Cell lines of hybridoma, 5th Ed.--1985).
The experimental procedure is substantially the same as that described by Herscowitz, H. B. (1981)--Manual of Macrophage Methodology. Dekker M, Editor.
In particular, samples of cell lines were labelled with ^3 H-TdR (tritiated thymidine) and their concentration was adjusted to 5×10^4 cells/ml. They were then added to the macrophage preparations (using 96-well microtiter plates) and the volumes were adjusted so as to obtain Effector (macrophage)/Target (tumor cell) ratios of 20:1; 40:1 and 80:1 in an overall volume of 0.3 ml/well.
Three replicates for each sample were prepared; after 48 and 72 hours of incubation at 37° C. in 5% CO2. Aliquots of 0.1 ml of supernatant were drawn out from each well and counted in a β-counter.
The macrophage cytotoxic activity results in a tumor cell lysis that causes the release of the radioactivity incorporated by the cells into the supernatant.
Based on the βeta-counter data (in cpm) this activity is expressed as the percentage of radioactivity released following lysis with respect to the radioactivity incorporated by the tumor cells.
The relevant formulas are as follows: [formula]
The measures carried out on the samples account for a certain degree of lysis occurring spontaneously in cultured tumor cells not exposed to macrophages. Total radioactivity incorporated by the tumor cells is calculated by conducting a lysis with 1% SDS in distilled water.

[3] = test system: murine peritoneal exudate cells (PEC); assay: "In vitro-ex vivo" effect on the phagocytic activity of exudate peritoneal cells (SRBC phagocytosis); set-up: species or system mouse (B6 D2 F1); settings: 26 mg/kg/day i.p. (so in the source)
[4] = test system: peritoneal macrophages of treated mice; target tumor cells; assay: "In vitro-ex vivo" effect on the cytostatic activity of peritoneal macrophages; set-up: species or system mouse (B6 D2 F1); tumor targets human
Procedure: Assessment of the "in vitro-ex vivo" effect of ST 557, ST 563 and ST 570 on the cytostatic activity of peritoneal macrophages
Male B6 D2 F1 mice aged 7-9 weeks (5 animals per group) were used.
The compounds were administered i.p. (25 mg/kg/day), ST 557 and ST 563 were also administered per os (100 mg/kg/day) from day -5 to day -1 (peritoneal cell harvesting at day 0).
The macrophages and target tumor cell lines were prepared as in test 1 and their concentrations were adjusted to 1×10^6 M/ml and 5×10^4 cell/ml, respectively.
Volumes of tumor cells were added to the macrophage preparations so as to obtain Effector/Target ratios of 10:1, 20:1 and 40:1.
Each sample was pulsed with ^3 H-TdR for 18 hours in order to label the tumor cells, which were then collected on filters and counted in a beta-counter.
The macrophage cytostatic activity is expressed as percentage inhibition of tumor cell replication, by assessing the radioactivity incorporated by the tumor cells in each sample with respect to the maximum radioactivity incorporated by a sample consisting of tumor cells only. [formula]

splenocytes = assay: "In vitro-ex vivo" effect on the mytogen (PHA, LPS)-induced splenocyte proliferation in mice; set-up: species or system mouse (B6 D2 F1); settings: 25 mg/kg/day i.p.
Procedure: Assessment of the "in vitro-ex vivo" effect of ST 557, ST 563, ST 608 on the mytogen (PHA, LPS)-induced splenocyte proliferation in mice
Male B6 D2 F1 mice aged 6-10 weeks (4 animals per group) were used.
The compounds were administered i.p. 25 mg/kg/day, from day -5 to -1 (spleen excision at day 0).
PHA (active on T lymphocytes) and LPS (active on B lymphocytes) were used as mytogens. Each mytogen was tested at three different concentrations (suboptimal, optimal, superoptimal): 0.5, 4 and 6 mcg/ml/well and 0.5, 150 and 500 mcg/ml/well, respectively.
The experimental procedure was conducted substantially as described by Kirchner et al., "Splenic suppressor macrophages induced in mice by injection of C. parvum", J. Immunol., 1975, 115: 1212.
In particular, the cell suspensions obtained from the spleens of the animals of the same group were pooled and the cell concentration was adjusted to 5×10^6 cells/ml.
To volumes of 0.1 ml of each sample, equal volumes of the mytogen preparations were added so as to obtain, for each mytogen, the previously indicated final concentrations.
Each sample was prepared in triplicate in U-bottom microtiters. A control, to which 0.1 ml of medium were added instead of the mytogen, was also prepared. The control permits the extent of spontaneous proliferation in the absence of stimulation to be assessed.
The samples were incubated at 37° C. for 48 hours and then they were pulsed with 20 μl ^3 H-TdR (25 μCi/ml).
After 18 hours of further incubation, the cells were collected on filters and counted in a beta-counter.
The results of each sample are expressed by calculating the value of the area under the curve (AUC) obtained by plotting the values of the incorporated radioactivity (in cpm) versus the various concentrations of each mytogen.
In addition to AUC, the stimulation index (SI) is also considered, that is defined as follows. [formula]

[5] = test system: murine peritoneal exudate cells (PEC); assay: "In vitro-ex vivo" effect on the phagocytic activity of exudate peritoneal cells (SRBC phagocytosis); set-up: species or system mouse (B6 D2 F1); settings: for SRBC per phagocytizing cell: average number of SRBC in each phagocyte
Procedure: Assessment of the "in vitro-ex vivo" effect of ST 557, ST 563, ST 564, ST 570, ST 608 and ST 626 on the phagocytic activity of exudate peritoneal cells (PEC)
Male B6 D2 F1 mice aged 6-8 weeks (5 animals each group) were used.
The compounds were administered i.p. (25 mg/kg/day), ST 557, ST 563 and ST 626 were also administered per os (100 mg/kg/day) from day -5 to day -1 (PEC harvesting at day 0).
The experimental procedure was substantially the same as that described by Williams et al., in "Methods in Immunology and Immunochemistry", Acad. Press. 5: 261 (1976).
In particular, 24 hours following the end of the treatment, PECs from each experimental group were harvested, pooled and their concentration was adjusted to 4×10^6 cells/ml.
To volumes of 250 μl of each PEC sample were added equal volumes of 0.4% SRBC (Sheep Red Blood Cells) opsonized with hyperimmune serum.
The samples (duplicate) were incubated for 1 hour and then subjected to hypotonic shock in order to remove the non-phagocytized SRBC. After restoring the osmolarity, the phagocytes were cytocentrifuged, stained with a differential dye and observed under the microscope.
The results were expressed as:
(a) percentage of cells that have phagocytized with respect to 100 phagocytizing cells;
(b) total number of phagocytized SRBC;
(c) average number of SRBC in each phagocyte.

[6] = 48 hours, E/T 20:1, 25 mg/kg/day i.p., B6 D2 F1
[7] = 48 hours, E/T 20:1, 25 mg/kg/day i.p., repeated experiment, B6 D2 F1
[8] = 48 hours, E/T 20:1, 25 mg/kg/day i.p., repeated experiment, C57B16 mice
[9] = 48 hours, E/T 40:1, 25 mg/kg/day i.p., B6 D2 F1
[10] = 48 hours, E/T 40:1, 25 mg/kg/day i.p., repeated experiment, B6 D2 F1
[11] = 48 hours, E/T 40:1, 25 mg/kg/day i.p., repeated experiment, C57B16 mice
[12] = 48 hours, E/T 80:1, 25 mg/kg/day i.p., repeated experiment, B6 D2 F1
[13] = 72 hours, E/T 20:1, 25 mg/kg/day i.p., B6 D2 F1
[14] = 72 hours, E/T 20:1, 25 mg/kg/day i.p., repeated experiment, B6 D2 F1
[15] = 72 hours, E/T 20:1, 25 mg/kg/day i.p., repeated experiment, C57B16 mice
[16] = 72 hours, E/T 40:1, 25 mg/kg/day i.p., B6 D2 F1
[17] = 72 hours, E/T 40:1, 25 mg/kg/day i.p., repeated experiment, B6 D2 F1
[18] = 72 hours, E/T 40:1, 25 mg/kg/day i.p., repeated experiment, C57B16 mice
[19] = 72 hours, E/T 80:1, 25 mg/kg/day i.p., repeated experiment, B6 D2 F1

SMILES | % lysis of tumor target [2, 6] | % lysis of tumor target [2, 7] | % lysis of tumor target [2, 8] | % lysis of tumor target [2, 9] | % lysis of tumor target [2, 10] | % lysis of tumor target [2, 11] | % lysis of tumor target [2, 12] | % lysis of tumor target [2, 13] | % lysis of tumor target [2, 14] | % lysis of tumor target [2, 15] | % lysis of tumor target [2, 16] | % lysis of tumor target [2, 17] | % lysis of tumor target [2, 18] | % lysis of tumor target [2, 19] | Fagocytizing cells ([5]; 25 mg/kg/day i.p.) | Total n° SRBC phagocytized ([5]; 25 mg/kg/day i.p.) | SRBC per phagocytizing cell ([5]; 25 mg/kg/day i.p.) | further results
CCN(CC(O)c1ccccc1)C1CCc2cc(OC)c(OC)cc2C1 (stereo not shown) [ST 570, 2-[(N-ethyl, N-2-hydroxy-2-phenylethyl)amino]-6,7-dimethoxytetraline] | 14.0 ± 0.7% | 9.0 ± 0.4% | 8.8 ± 1.2% | 34.7 ± 1.2% | 10.9 ± 1.0% | 13.0 ± 0.5% | 19.0 ± 1.0% | 19.3 ± 0.7% | 13.2 ± 0.2% | 10.8 ± 1.5% | 45.4 ± 2.1% | 15.7 ± 0.8% | 14.9 ± 0.3% | 25.3 ± 1.0% | – | – | – | MTD at 168 h ([1]; iv): > 20 mg/kg; MTD at 168 h ([1]; po, os, fasting 18 hours): > 50 mg/kg; % lysis of tumor target ([2]; 48 hours, E/T 80:1, 25 mg/kg/day i.p., repeated experiment, C57B16 mice): 14.6 ± 0.6%; % lysis of tumor target ([2]; 72 hours, E/T 80:1, 25 mg/kg/day i.p., repeated experiment, C57B16 mice): 16.2 ± 0.8%; Fagocytizing cells [3]: 41.0%; SRBC per phagocytizing cell ([3]; average number of SRBC in each phagocyte): 3.3; % of inhibition of target tumor growth ([4]; E/T 20:1, 25 mg/kg/day i.p.): 38.3 ± 2.5%; % of inhibition of target tumor growth ([4]; E/T 40:1, 25 mg/kg/day i.p.): 71.0 ± 2.4%
CCCNC1CCc2cc(OC(C)=O)c(OC(C)=O)cc2C1 (stereo not shown) [ST 608, 2-N-propylamino-6,7-diacetoxytetraline] | – | – | – | – | – | – | – | – | – | – | – | – | – | – | 41.0% | 137.5 | 3.30 | AUC (area under curve, incorporated radioactivity vs mytogen concentration) (splenocytes; LPS): 10333 ± 807 ×10^-3 and 18054 ± 970 ×10^-3 and 14490 ± 433 ×10^-3 and 15892 ± 339 ×10^-3; S.I. (stimulation index) (splenocytes; LPS): 1.27 and 1.10 and 1.20 and 1.06; AUC (area under curve, incorporated radioactivity vs mytogen concentration) (splenocytes; PHA): 183 ± 6 ×10^-3 and 128 ± 4 ×10^-3 and 146 ± 4 ×10^-3 and 233 ± 2 ×10^-3; S.I. (stimulation index) (splenocytes; PHA): 1.11 and 1.04 and 1.07 and 1.12
COc1cc2c(cc1F)CCC(N)C2 (stereo not shown) [ST 626, 2-amino-6-fluoro-7-methoxytetraline] | 7.4 ± 0.2% | 8.0 ± 0.8% | 11.8 ± 0.6% | 12.8 ± 0.8% | 18.7 ± 0.1% and 11.6 ± 0.7% | 12.7 ± 0.1% | 18.8 ± 0.1% and 28.0 ± 5.6% | 10.8 ± 0.3% | 12.3 ± 0.6% | 12.6 ± 0.1% | 17.6 ± 0.8% | 27.5 ± 0.6% and 14.3 ± 0.6% | 13.5 ± 0.7% | 28.0 ± 0.7% and 32.0 ± 4.3% | 41.0% | 137.5 | 3.30 | Fagocytizing cells ([5]; 100 mg/kg/day os): 57.0%; Total n° SRBC phagocytized ([5]; 100 mg/kg/day os): 222.0; SRBC per phagocytizing cell ([5]; 100 mg/kg/day os): 3.89
